Molecules are shown by their SMILES.

T1 sequence (O14842 whole entry): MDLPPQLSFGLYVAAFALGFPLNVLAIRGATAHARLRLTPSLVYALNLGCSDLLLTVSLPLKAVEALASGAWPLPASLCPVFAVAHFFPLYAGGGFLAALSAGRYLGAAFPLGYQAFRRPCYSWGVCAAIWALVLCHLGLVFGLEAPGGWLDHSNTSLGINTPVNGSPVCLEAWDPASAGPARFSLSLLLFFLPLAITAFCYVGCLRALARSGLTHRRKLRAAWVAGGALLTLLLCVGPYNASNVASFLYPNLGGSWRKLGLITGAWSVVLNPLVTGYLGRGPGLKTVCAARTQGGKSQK

This test concerns the target T1, hGPR40 (Homo sapiens, UniProt O14842).
T1 construct: 3x FLAG; expressed in transfected cells
Description: FDSS-Based Intracellular Calcium Assay. The test is classed as cell-based. As to conditions: cells expressing GPR40, intracellular Ca2+ response. The method, then: FDSS-Based Intracellular Calcium Assay
Cell lines expressing GPR40 are generated using the pDEST 3× flag gene expression system and are cultured in culture medium comprising the following components: F12 (Gibco #11765), 10% lipid deprived fetal bovine serum, 250 μg/ml zeocin and 500 μg/ml G418. To conduct the fluorescent imaging plate reader (FLIPR)-based calcium flux assay to measure intracellular Ca^2+ response, cells expressing GPR40 are plated on 384 well plates (BD Biocoat #356697) at a density of 20,000 cells/20 μL medium per well in phenol red and serum-free DMEM (Gibco #21063-029) and incubated overnight. […] Compounds are dissolved in DMSO and diluted to desired concentrations with assay buffer and added to the cells as 3x solution (20 μL per well). Run fluorescence/luminescence reader FDSS (Hamamatsu) to read intracellular Ca^2+ response.
For orientation: Calcium assays in cells follow changes in intracellular calcium, usually with a dye or a luminescent sensor.
Broadly, the EC50 is the midpoint of the concentration-response curve. Regarding `Cc1ccccc1Oc1ccc(N2N=C(C(F)(F)F)CC2CC(=O)O)cc1` (single isomer, unassigned) [Example 11, Isomer 1, 2-(1-(4-(o-tolyloxy)phenyl)-3-(trifluoromethyl)-4,5-dihydro-1H-pyrazol-5-yl)acetic acid], the concentration giving a half-maximal response (EC50) turned out to be 70 nM.

Turning to `Cc1ccccc1Oc1ccc(N2N=C(C(F)(F)F)CC2CC(=O)O)cc1` (single isomer, unassigned) [Example 11, Isomer 2, 2-(1-(4-(o-tolyloxy)phenyl)-3-(trifluoromethyl)-4,5-dihydro-1H-pyrazol-5-yl)acetic acid], the EC50 was 1850 nM.

Turning to `COc1ccc(F)c(-c2ccc(Oc3ccc(N4N=C(C(F)(F)F)CC4CC(=O)O)cc3)c(C)c2)c1` (single isomer, unassigned) [Example 14, Isomer 1, 2-(1-(4-(2′-fluoro-5′-methoxy-3-methylbiphenyl-4-yloxy)phenyl)-3-(trifluoromethyl)-4,5-dihydro-1H-pyrazol-5-yl)acetic acid], the EC50 came out at 165 nM.

Take `COc1ccc(F)c(-c2ccc(Oc3ccc(N4N=C(C(F)(F)F)CC4CC(=O)O)cc3)c(C)c2)c1` (single isomer, unassigned) [Example 14, Isomer 2, 2-(1-(4-(2′-fluoro-5′-methoxy-3-methylbiphenyl-4-yloxy)phenyl)-3-(trifluoromethyl)-4,5-dihydro-1H-pyrazol-5-yl)acetic acid]: the half-maximal effective concentration (EC50) is 160 nM.

In the case of `COc1cc(-c2ccc(Oc3ccc(N4N=C(C(F)(F)F)CC4CC(=O)O)cc3)c(C)c2)c(F)cn1` (single isomer, unassigned) [Example 15, Isomer 1, 2-(1-(4-(4-(5-fluoro-2-methoxypyridin-4-yl)-2-methylphenoxy)phenyl)-3-(trifluoromethyl)-4,5-dihydro-1H-pyrazol-5-yl)acetic acid], the EC50 came out at 270 nM.

In the case of `COc1cc(-c2ccc(Oc3ccc(N4N=C(C(F)(F)F)CC4CC(=O)O)cc3)c(C)c2)c(F)cn1` (single isomer, unassigned) [Example 15, Isomer 2, 2-(1-(4-(4-(5-fluoro-2-methoxypyridin-4-yl)-2-methylphenoxy)phenyl)-3-(trifluoromethyl)-4,5-dihydro-1H-pyrazol-5-yl)acetic acid], the EC50 came out at 530 nM.

For the molecule `COc1ccc(F)c(-c2ccc(Oc3ccc(N4N=C(C(F)(F)F)CC4CC(=O)O)cc3)cc2C)c1` (single isomer, unassigned) [Example 16, Isomer 1, 2-(1-(4-(2′-fluoro-5′-methoxy-2-methylbiphenyl-4-yloxy)phenyl)-3-(trifluoromethyl)-4,5-dihydro-1H-pyrazol-5-yl)acetic acid], the EC50 came to 670 nM.

Turning to `COc1ccc(F)c(-c2ccc(Oc3ccc(N4N=C(C(F)(F)F)CC4CC(=O)O)cc3)cc2C)c1` (single isomer, unassigned) [Example 16, Isomer 2, 2-(1-(4-(2′-fluoro-5′-methoxy-2-methylbiphenyl-4-yloxy)phenyl)-3-(trifluoromethyl)-4,5-dihydro-1H-pyrazol-5-yl)acetic acid], the EC50 was determined as 340 nM.

For `COc1ccc(F)c(-c2ccc(Cc3ccc(N4N=C(C(F)(F)F)CC4CC(=O)O)cc3)c(C)c2)c1` (single isomer, unassigned) [Example 17, Isomer 1, 2-(1-(4-((2′-fluoro-5′-methoxy-3-methylbiphenyl-4-yl)methyl)phenyl)-3-(trifluoromethyl)-4,5-dihydro-1H-pyrazol-5-yl)acetic acid], the half-maximal effective concentration (EC50) worked out at 150 nM.

For `COc1ccc(F)c(-c2ccc(Cc3ccc(N4N=C(C(F)(F)F)CC4CC(=O)O)cc3)c(C)c2)c1` (single isomer, unassigned) [Example 17, Isomer 2, 2-(1-(4-((2′-fluoro-5′-methoxy-3-methylbiphenyl-4-yl)methyl)phenyl)-3-(trifluoromethyl)-4,5-dihydro-1H-pyrazol-5-yl)acetic acid], the 50% effective concentration (EC50) was determined as 90 nM.

For the molecule `COc1ccc(F)c(-c2ccc(Cc3ccc(N4N=C(C(F)(F)F)CC4CC(=O)O)cc3)c(F)c2)c1` (single isomer, unassigned) [Example 19, Isomer 1, 2-(1-(4-((2′,3-difluoro-5′-methoxybiphenyl-4-yl)methyl)phenyl)-3-(trifluoromethyl)-4,5-dihydro-1H-pyrazol-5-yl)acetic acid], the EC50 was found to be 580 nM.

As for `COc1ccc(F)c(-c2ccc(Cc3ccc(N4N=C(C(F)(F)F)CC4CC(=O)O)cc3)c(F)c2)c1` (single isomer, unassigned) [Example 19, Isomer 2, 2-(1-(4-((2′,3-difluoro-5′-methoxybiphenyl-4-yl)methyl)phenyl)-3-(trifluoromethyl)-4,5-dihydro-1H-pyrazol-5-yl)acetic acid], the EC50 worked out at 90 nM.

`COc1ccc(F)c(-c2ccc(Cc3ccc(N4N=C(C(F)(F)F)CC4CC(=O)O)cc3)c(Cl)c2)c1` (single isomer, unassigned) [Example 20, Isomer 1, 2-(1-(4-((3-chloro-2′-fluoro-5′-methoxybiphenyl-4-yl)methyl)phenyl)-3-(trifluoromethyl)-4,5-dihydro-1H-pyrazol-5-yl)acetic acid]: the EC50 came to 470 nM.

As for `COc1ccc(F)c(-c2ccc(Cc3ccc(N4N=C(C(F)(F)F)C[C@@H]4CC(=O)O)cc3)c(Cl)c2)c1` (single isomer, unassigned) [Example 20, Isomer 2], the EC50 was 50 nM.

Consider `COc1ccc(F)c(-c2cc(C)c(Cc3ccc(N4N=C(C(F)(F)F)CC4CC(=O)O)cc3)c(F)c2)c1` (single isomer, unassigned) [Example 21, Isomer 1, 2-(1-(4-((2′,3-difluoro-5′-methoxy-5-methylbiphenyl-4-yl)methyl)phenyl)-3-(trifluoromethyl)-4,5-dihydro-1H-pyrazol-5-yl)acetic acid], for which the 50% effective concentration (EC50) is 500 nM.

`COc1ccc(F)c(-c2cc(C)c(Cc3ccc(N4N=C(C(F)(F)F)CC4CC(=O)O)cc3)c(F)c2)c1` (single isomer, unassigned) [Example 21, Isomer 2, 2-(1-(4-((2′,3-difluoro-5′-methoxy-5-methylbiphenyl-4-yl)methyl)phenyl)-3-(trifluoromethyl)-4,5-dihydro-1H-pyrazol-5-yl)acetic acid]: the concentration for a half-maximal effect (EC50) was 270 nM.

Consider `COc1ccc(F)c(-c2ccc(Cc3ccc(N4N=C(C(F)(F)F)CC4CC(=O)O)cc3)cc2C)c1` (single isomer, unassigned) [Example 22, Isomer 1, 2-(1-(4-((2′-fluoro-5′-methoxy-2-methylbiphenyl-4-yl)methyl)phenyl)-3-(trifluoromethyl)-4,5-dihydro-1H-pyrazol-5-yl)acetic acid], for which the concentration for a half-maximal effect (EC50) is 770 nM.

In the case of `COc1ccc(F)c(-c2ccc(Cc3ccc(N4N=C(C(F)(F)F)CC4CC(=O)O)cc3)cc2C)c1` (single isomer, unassigned) [Example 22, Isomer 2, 2-(1-(4-((2′-fluoro-5′-methoxy-2-methylbiphenyl-4-yl)methyl)phenyl)-3-(trifluoromethyl)-4,5-dihydro-1H-pyrazol-5-yl)acetic acid], the EC50 came out at 350 nM.

`COc1cccc(-c2ccc(Cc3ccc(N4N=C(C(F)(F)F)CC4CC(=O)O)cc3)c(C)c2)c1` (single isomer, unassigned) [Example 26, Isomer 1, 2-(1-(4-((3′-methoxy-3-methylbiphenyl-4-yl)methyl)phenyl)-3-(trifluoromethyl)-4,5-dihydro-1H-pyrazol-5-yl)acetic acid]: the EC50 was determined as 330 nM.

Consider `COc1cccc(-c2ccc(Cc3ccc(N4N=C(C(F)(F)F)CC4CC(=O)O)cc3)c(C)c2)c1` (single isomer, unassigned) [Example 26, Isomer 2, 2-(1-(4-((3′-methoxy-3-methylbiphenyl-4-yl)methyl)phenyl)-3-(trifluoromethyl)-4,5-dihydro-1H-pyrazol-5-yl)acetic acid], for which the EC50 turned out to be 120 nM.

Turning to `COc1cc(-c2ccc(Cc3ccc(N4N=C(C(F)(F)F)CC4CC(=O)O)cc3)c(C)c2)c(F)cn1` (single isomer, unassigned) [Example 27, Isomer 1, 2-(1-(4-(4-(5-fluoro-2-methoxypyridin-4-yl)-2-methylbenzyl)phenyl)-3-(trifluoromethyl)-4,5-dihydro-1H-pyrazol-5-yl)acetic acid], the EC50 was 360 nM.

As to `COc1cc(-c2ccc(Cc3ccc(N4N=C(C(F)(F)F)CC4CC(=O)O)cc3)c(C)c2)c(F)cn1` (single isomer, unassigned) [Example 27, Isomer 2, 2-(1-(4-(4-(5-fluoro-2-methoxypyridin-4-yl)-2-methylbenzyl)phenyl)-3-(trifluoromethyl)-4,5-dihydro-1H-pyrazol-5-yl)acetic acid], the concentration for a half-maximal effect (EC50) is 150 nM.

As to `COc1ccc(F)c(-c2ccc(Cc3ccc(N4N=C(C#N)CC4CC(=O)O)cc3)c(C)c2)c1` (single isomer, unassigned) [Example 34, Isomer 1, 2-(3-cyano-1-(4-((2′-fluoro-5′-methoxy-3-methylbiphenyl-4-yl)methyl)phenyl)-4,5-dihydro-1H-pyrazol-5-yl)acetic acid], the EC50 came out at 150 nM.

In the case of `COc1ccc(F)c(-c2ccc(Cc3ccc(N4N=C(C#N)CC4CC(=O)O)cc3)c(C)c2)c1` (single isomer, unassigned) [Example 34, Isomer 2, 2-(3-cyano-1-(4-((2′-fluoro-5′-methoxy-3-methylbiphenyl-4-yl)methyl)phenyl)-4,5-dihydro-1H-pyrazol-5-yl)acetic acid], the EC50 was 560 nM.

For the molecule `COc1ccc(F)c(-c2ccc(Cc3ccc(N4N=C(C(F)(F)F)C(CC(C)C)C4CC(=O)O)cc3)c(C)c2)c1` (single isomer, unassigned) [Example 41, Isomer 2, 2-(1-(4-((2′-fluoro-5′-methoxy-3-methylbiphenyl-4-yl)methyl)phenyl)-4-isobutyl-3-(trifluoromethyl)-4,5-dihydro-1H-pyrazol-5-yl)acetic acid], the concentration giving a half-maximal response (EC50) turned out to be 95 nM.

The record behind these values is US9656963B2 (BRISTOL-MYERS SQUIBB COMPANY, priority 2012, dated 2017).
